In patent US9192656B2, “Methods and compositions for the treatment of cancer” (QUINTESSENCE BIOSCIENCES, INC., priority 2006, dated 2015):

Legend:
[1] = test system: human prostate cancer cell line (DU145); experiment: In vivo inhibition of tumor growth, DU145 xenograft; design: species or system human tumor cells in nude mice; conditions: for Starting volume: at start
Procedure: Cells from a non-small cell lung cancer cell line (A549) were grown in nine T175 flasks in F12K media and 10% fetal calf serum until the cells were confluent. 4.5×10^6 cells (in 100 microliters) were injected into the right rear flank of 4-5 week old male homozygous (nu/nu) nude mice (Harlan, Madison Wis.). Tumors were allowed to grow to an average size of ≧75 mm^3 before treatments were initiated. Animals of each tumor type, with the properly sized tumors, were divided into treatment groups, including one set of animals treated weekly with vehicle (phosphate buffered saline, PBS). The vehicle and the test agents were all administered by intraperitoneal injection. Each animal was weighed twice a week during treatment. The tumors were measured twice weekly using calipers. Tumor volume (mm^3) was determined by using the formula for an ellipsoid sphere: […]
The percent tumor growth inhibition (% TGI) is calculated by: […]
This xenograft model was set up as in the previous example except that a human prostate cancer cell line (DU145) was used. The efficacy of wild type human RNase 1 is shown relative to docetaxel. The RNase 1 was administered at 75 mg per kg of body weight of the animal (75 mg/kg 1×wk), while the docetaxel was used at 8 mg/kg once a week. The value of n represents the number of animals in the specific treatment arm of the experiment.
(§1) The xenograft model of this example was set up as in the previous example except that a human prostate cancer cell line (DU145) was used. The efficacy of wild type human RNase 1 is shown. The RNase 1 was administered at 75 mg per kg of body weight of the animal once per week (75 mg/kg 1×wk). The value of n represents the number of animals in the specific treatment arm of the experiment.
as §1, with “example.” for “example except that a human prostate cancer cell line (DU145) was used.”, “three different doses: (1) 15” for “75”, “(15” for “(75”, “1×wk), (2) 75 mg/kg 1×wk, or (3) 300 mg/kg 1×wk.” for “1×wk).”

tumor = conditions: previous experiments, Cancer Res., 64:4870 [2004]; cited from earlier work
[2] = Example 4, Table 8, RNase 1 75 mg/kg 1×wk, docetaxel 8 mg/kg once a week
[3] = Example 8, Table 12, 75 mg/kg 1×wk
[4] = Example 9, Table 13, set up as in the previous example, 15 mg/kg 1×wk
[5] = Example 9, Table 13, set up as in the previous example, 75 mg/kg 1×wk
[6] = Example 9, Table 13, set up as in the previous example, 300 mg/kg 1×wk

## Wild type human RNase 1: wild type human ribonuclease 1 (human pancreatic RNase), SEQ ID NO:1
[1]; [2]
  % TGI: 80%
  (Final − start): 478 mm^3
  (Final − start)/Control: 0.20
  Final volume: 539 mm^3
  Starting volume: 61 mm^3
[1]; [3]
  % TGI: 77%
  (Final − start): 607 mm^3
  (Final − start)/Control: 0.23
  Final volume: 669 mm^3
  Starting volume: 62 mm^3
[1]; [4]
  % TGI: 0%
  (Final − start): 1136 mm^3
  (Final − start)/Control: 1
  Final volume: 1246 mm^3
  Starting volume: 110 mm^3
[1]; [5]
  % TGI: 61%
  (Final − start): 445 mm^3
  (Final − start)/Control: 0.39
  Final volume: 559 mm^3
  Starting volume: 114 mm^3
[1]; [6]
  % TGI: 43%
  (Final − start): 652 mm^3
  (Final − start)/Control: 0.57
  Final volume: 766 mm^3
  Starting volume: 114 mm^3
tumor
  reduction in tumor volume: did not demonstrate a reduction in tumor volume
